Where “and” joins values, the source holds several entries; their conditions need not be identical. Equal entries are not always repeated.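 Five concentrations, 48 hours, 96-well plates. GI50: concentration for 50% inhibition of growth. At the TGI there is no net growth.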
Columns and labels:
Assay in all cases: inhibition of tumour cell growth, NCI panel, 48 h
COLO 205 colon = system: COLO 205 colon
SF-268 CNS = system: SF-268 CNS
IGROV1 ovarian = system: IGROV1 ovarian
SNB-19 CNS = system: SNB-19 CNS
MOLT-4 leukemia = system: MOLT-4 leukemia
MALME-3M melanoma = system: MALME-3M melanoma
CCRF-CEM leukemia = system: CCRF-CEM leukemia
HL-60(TB) leukemia = system: HL-60(TB) leukemia
HCT-116 colon = system: HCT-116 colon
PC-3 prostate = system: PC-3 prostate

Compound | GI50 (COLO 205 colon) | TGI (COLO 205 colon) | GI50 (SF-268 CNS) | TGI (SF-268 CNS) | GI50 (IGROV1 ovarian) | TGI (IGROV1 ovarian) | GI50 (SNB-19 CNS) | TGI (SNB-19 CNS) | GI50 (MOLT-4 leukemia) | TGI (MOLT-4 leukemia) | GI50 (MALME-3M melanoma) | TGI (MALME-3M melanoma) | GI50 (CCRF-CEM leukemia) | TGI (CCRF-CEM leukemia) | GI50 (HL-60(TB) leukemia) | TGI (HL-60(TB) leukemia) | GI50 (HCT-116 colon) | TGI (HCT-116 colon) | GI50 (PC-3 prostate) | TGI (PC-3 prostate)
Nc1nc(N)c2c(n1)NC(c1ccccc1)C1CCc3ccccc3C1=N2 (stereo unspecified) | 3.07 µM | 10.9 µM | 6.96 µM | 20 µM | 4.45 µM | 19.4 µM | 15.6 µM | 29.8 µM | 2.7 µM | 14.7 µM | 2.13 µM | 17.9 µM | 4.47 µM | > 100 µM | 2.37 µM | 6.01 µM | 2.97 µM | 12.7 µM | 2.82 µM | 47.7 µM
COC(=O)/C=C1/SC(N2N=C(c3cccs3)CC2c2ccc(F)cc2)=NC1=O (stereo unspecified) | 2.15 µM | 4.27 µM | 2.95 µM | 12.6 µM | 2.4 µM | 7.06 µM | 2.51 µM | 6.32 µM | 2.65 µM | 7.25 µM | 2.44 µM | 8.51 µM | 3 µM | 8.73 µM | 2.88 µM | 6.35 µM | 2.05 µM | 3.82 µM | 1.92 µM | 4.3 µM
CCOC(=O)c1oc2ccc([N+](=O)[O-])c3c2c1CCC3 |  | > 100 µM |  | 72.2 µM |  | > 100 µM |  | > 89.6 µM |  | > 100 µM |  | > 100 µM |  | > 100 µM |  | > 100 µM |  | > 100 µM |  | > 100 µM
C[n+]1c(-c2ccc(/C=N/NC(=O)c3ccc(C(=O)N/N=C/c4ccc(-c5cn6ccccc6[n+]5C)cc4)cc3)cc2)cn2ccccc21 | > 1000 µM | > 1000 µM | > 1000 µM | > 1000 µM | > 1000 µM | > 1000 µM | 248 µM | 517 µM | 135 µM | 292 µM | 208 µM | > 85.6 µM and 422 µM | 209 µM | > 50 µM and 353 µM | 2.37 µM | 186 µM | > 1000 µM | > 1000 µM | 169 µM | 306 µM
CN1CCN(Cc2ccc(NC(=O)c3cncc(C#Cc4cncc5nccnc45)c3)cc2C(F)(F)F)CC1 | 0.904 µM | 7.11 µM | 5.22 µM | 16.6 µM | 1.52 µM | 7.07 µM | 9 µM | 18.9 µM | 1.89 µM | 13.2 µM | 0.231 µM | 1.3 µM | 3.98 µM | 35 µM | 0.342 µM | 4.76 µM | 1.39 µM | 7.35 µM | 4.73 µM | 32.2 µM
Cn1c2ccccc2c2c3[nH][nH]c(=O)c3c3c4ccccc4[nH]c3c21 | 4.74 µM | 21 µM | 2.62 µM | 14.4 µM |  |  | 3.05 µM | > 100 µM | 1.89 µM | 5.55 µM | 5.24 µM | 29.6 µM | 2.89 µM | 10.2 µM | 2.46 µM | 6 µM | 1.32 µM | 92.5 µM | 2.03 µM | 11.3 µM
Cc1ccc(C(SCC(N)C(=O)O)(c2ccccc2)c2ccccc2)cc1 (stereo unspecified) | 0.098 µM | 0.95 µM | 0.0612 µM | 31.9 µM | 0.141 µM | > 71.3 µM | 0.125 µM | > 100 µM | 0.244 µM | > 100 µM |  | > 100 µM | 0.0832 µM | > 100 µM | 0.0878 µM |  | 0.0384 µM | 13 µM | 0.075 µM | > 100 µM
N=C(N)c1ccc(NCCOCCNc2ccc(C(=N)N)cc2)cc1 | 14.9 µM | 39.5 µM | 45.3 µM | > 100 µM | 60.5 µM | > 100 µM | 27.3 µM | > 100 µM | > 100 µM | > 100 µM | 29.7 µM | 87 µM | > 100 µM | > 100 µM | 60.9 µM | > 100 µM | 49.4 µM | > 100 µM | 50.7 µM | > 100 µM
Cc1cc2nc3cc(C)c(N)cc3[n+](-c3ccccc3)c2cc1N | 2.55 µM | 14.3 µM | 2.23 µM | > 100 µM | 12.4 µM | > 100 µM | 2.06 µM | > 100 µM | 6.5 µM | > 100 µM | 3.98 µM | 51.1 µM | 11.2 µM | > 100 µM | 4.92 µM | > 100 µM | 3.64 µM | 41.4 µM | 3.63 µM | > 100 µM
NC(N)=Nc1nc2ccc([N+](=O)[O-])cc2[nH]1 |  | > 100 µM |  | > 100 µM |  | > 100 µM |  | > 100 µM |  | > 100 µM |  | > 100 µM |  | > 100 µM |  | > 100 µM |  | > 100 µM |  | > 100 µM
C/C(=N\NC(=S)N1CC2CCC(CC2)C1)c1cccc(C)n1 | 0.000385 µM | 11.1 µM |  | 13 µM |  | 13.9 µM | 0.26 µM | 14.3 µM | < 0.0001 µM | 0.00764 µM | 0.605 µM | 17.8 µM | 0.000124 µM |  | 0.00016 µM | 4.45 µM |  | 2.78 µM |  | 15.6 µM
O=c1c(Br)cc2c(-c3ccccc3)c3cc(Br)c(O)c(Br)c3oc-2c1Br |  | > 100 µM |  | > 100 µM |  | > 100 µM |  | > 100 µM |  | > 100 µM |  | > 100 µM |  | > 100 µM |  | > 100 µM |  | > 100 µM |  | > 100 µM
CCC(=O)Nc1ccccc1C#C/C=C\C#Cc1ccccc1C(F)(F)F | 4.59 µM | > 25.9 µM | 3.21 µM | 35.3 µM | 3.39 µM | > 18.9 µM | 5.52 µM | > 50 µM | 4.11 µM | > 23.3 µM | 7.54 µM | > 50 µM | 2.4 µM | > 20 µM | 1.18 µM | > 10.4 µM | 2.81 µM | 25.8 µM | 4.08 µM | > 50 µM
CCCCN(CCCC)CCC(O)c1cc2c(Cl)cc(Cl)cc2c2cc(C(F)(F)F)ccc12 (stereo unspecified) |  | 23.6 µM |  | 24.4 µM |  | 26.5 µM |  | 40.6 µM |  | 29.3 µM |  | 30 µM |  | 29 µM |  | 21.8 µM |  | 25.2 µM |  | 22.2 µM
O=C1Nc2ccccc2/C1=C\c1nc(C2CCN(S(=O)(=O)c3ccc(F)cc3)CC2)n2ccccc12 | > 100 µM | > 100 µM | 1.9 µM | 13.8 µM | 2.69 µM | > 100 µM | 3.99 µM | 33.3 µM | > 100 µM | > 100 µM |  |  | > 100 µM | > 100 µM | > 100 µM | > 100 µM | 13.3 µM | > 100 µM | 4.98 µM | > 100 µM
O=c1c(NO)c([N+](=O)[O-])cnn1-c1ccccc1 |  | 9.85 µM |  | 34.2 µM |  | 41.1 µM |  | 26.1 µM |  | 10.5 µM |  | 12 µM |  | 2.8 µM |  | 3.14 µM |  | 6.25 µM |  | 2.97 µM
Cc1[nH]nc2c1N=C(c1ccccc1F)c1cc(C(N)=O)ccc1N2 | 2.3 µM | 6.61 µM | 2.22 µM | 8.46 µM | 8.29 µM | > 22.5 µM | 6.43 µM | > 25 µM | 6.63 µM | 22 µM | 18.3 µM | > 25 µM | 1.15 µM | > 14.9 µM | 5.97 µM | 14.4 µM | 1.02 µM | > 25 µM | 2.26 µM | > 25 µM
CC(C)n1nc(-c2ccc3oc(N)nc3c2)c2c(N)ncnc21 | < 0.01 µM and 0.0144 µM | 2.21 µM and 1.88 µM | 0.0151 µM and 0.0154 µM | 2.88 µM and 1.85 µM | < 0.01 µM | 0.0554 µM and 0.277 µM | 0.0336 µM and 0.027 µM | 1.94 µM and 1.33 µM | 0.0325 µM and 0.0438 µM | 5.9 µM and 9.49 µM | < 0.01 µM | < 0.01 µM and 0.022 µM | 0.0265 µM and 0.0467 µM | > 45.6 µM | 0.0869 µM and 0.168 µM | 12.3 µM and 11.2 µM | 0.0387 µM and 0.0361 µM | 15 µM | < 0.01 µM | 3.94 µM and 2.57 µM
NCCOc1ccccc1/C=C1\c2ccccc2-c2ccc([N+](=O)[O-])cc21 | 1.75 µM | 3.44 µM | 1.58 µM | 3.15 µM | 1.35 µM | 2.68 µM |  |  |  |  | 1.5 µM | 2.91 µM | 1.08 µM | 2.54 µM | 1.54 µM | 3.07 µM | 1.25 µM | 2.51 µM | 1.52 µM | 2.96 µM
C[C@]12CC[C@H]3[C@@H](C[C@@H]4SC(Nc5ccccc5)=N[C@@]45CC(O)CC[C@]35C)[C@@H]1CCC2O (stereo partly specified) | 2.45 µM | 5.61 µM | 1.66 µM | 3.32 µM | 2.78 µM | 7.85 µM | 1.86 µM | 3.77 µM | 1.87 µM | 8.07 µM | 2.19 µM | 5.89 µM | 1.6 µM | 27.1 µM | 2.02 µM | 6.87 µM | 1.51 µM | 3.01 µM | 2.37 µM | 5.85 µM
C=CC/C(=C\COP(=O)(OCc1ccc([N+](=O)[O-])o1)N(C)CCCCCl)CC/C=C(\C)CCC=C(C)C (stereo unspecified) | 20.4 µM | 43.2 µM | 12 µM | 29 µM |  |  | 19.5 µM | 34.9 µM | 8.03 µM | 36.3 µM |  |  | 0.0483 µM | 15.9 µM | 21.9 µM | > 100 µM | 3.76 µM | 18 µM | 12 µM | 24.3 µM

Reference: PubChem BioAssay (NCI)
